Where two headings read alike, the source gives them in different places.
How the values were obtained:
STAT6 = STAT6 inhibition test: (GLS)x8/pTA-Luc luciferase reporter in U2-OS cells stimulated with human IL-4; format: cell-based; conditions: human IL-4 40 ng/mL; for inhibition at 2 µM / Inhibition Rate of STAT6 (%): compound 2 μM, 8 hours; for inhibition at 2 µM: read-out: Inhibition Rate of STAT6 (%); for IC50: from inhibition rates at 1, 0.1, 0.01 and 0.001 μM, read-out: IC50 against activation of STAT6
From the text: (1) Construction of a STAT6 Reporter Plasmid
The Oligonucleotides (SEQ ID: 1, 2) containing two copies of STAT6 binding sequences (refer to J. Biol. Chem., vol. 276, No. 9, pp. 6675-6688 (2001).) were synthesized, and integrated into the enhancer region of the reporter plasmid pTA-Luc Vector (CLONTECH Laboratories, Inc.) at the restriction enzyme BgIII site.
When the oligonucleotide is integrated in positive direction into the plasmid, the upstream BglII site is not reconstructed. Therefore, STAT6 binding sequences can be increased by repeating integration of the oligonucleotide at the restriction enzyme BglII site.
In the present test, a plasmid including eight integrated STAT6 binding sequences was constructed and provided for the reporter assay as (GLS)x8/pTA-Luc. Confirmation of the sequences was carried out using an automated fluorescence sequencer (Model 310 (Applied Biosystems)).
(2) Transfection into U2-OS Cells and Inhibition Test for STAT6 Activation
U2-OS cells were seeded to at 2×10^4 cells/well in 96-well culture plates, and transfection was carried out using FuGENE 6 Transfection Reagent (Roche Diagnostics GmbH). The procedures of the transfection are shown below.
11 μg of reporter plasmid ((GLS)x8/pTA-Luc) and 1.1 μg of pCMV β (CLONTECH Laboratories, Inc.) were mixed in 1.1 mL of OPTI-MEM I medium (GIBCO BRL) (solution (A)).
33 μL of FuGENE 6 Transfection Reagent was mixed in 1.1 mL of OPTI-MEM I medium (solution (B)).
(§1) The above solution (A) and solution (B) were mixed, let them stand for 15 minutes at room temperature, then, 8.8 mL of OPTI-MEM I medium was added and diluted.
To this transfection solution, U2-OS cell suspension (11 mL) in McCoy's 5A medium (GIBCO BRL) containing 10% Fetal Bovine Serum (FBS; GIBCO BRL) at 2×10^5 cells/mL was added and well mixed.
(§2) 0.2 mL of the above solution was dispensed into each well of 96-well culture plates, and incubated for 24 hours (37° C., 5% CO2).
After removal of 50 μL of medium from each well, 50 μL of McCoy's 5A medium (serum-free) containing compound, of the present application was added to a final concentration of 0.01˜2 μM (0.001, 0.01, 0.1, 0.5, 1 or 2 μM), and the plates were incubated for 2 hours (37° C., 5% CO2).
10 μL of the McCoy's 5A medium (serum-free) containing human IL-4 (R&D Systems, Inc) was added to each well to achieve a final concentration of 40 ng/mL, and incubated for 8 hours (37° C., 5% CO2).
(§3) Medium was completely removed and plates were preserved at −80° C. until measurements.
(§4) Cell lysates were prepared by adding 40 μL of Passive Lysis Buffer (Promega Corporation) to each well.
(§5) 10 μL of each lysate was transferred to 96-well white plates. 50 μL of PicaGene L.T.2.0 (TOYO INK MFG. CO., LTD.) was added to each well, then, luminescence was measured after leaving for 10 minutes at room temperature.
(§6) 10 μL of each lysate was transferred to 96-well black plates. 100 μL of Z Buffer (preparation method will be explained later) was added to each well, and fluorescence was measured immediately.
(§7) 10 μL of each lysate was transferred to 96-well clear plates. 200 μL of protein assay reagent prepared from the BCA Protein Assay Kit (Pierce Biotechnology, Inc.) was added to each well, and, absorbance was measured after incubation for 30 minutes at 37° C.
(§8) For measurements of luminescence, fluorescence, and absorbance, microplate reader GENios (TECAN G.M.B.H.) was used.
(4) Calculation of Inhibition Rate
Luminescence values that show the degree of activation by IL-4 stimulation were normalized by β-gal values that show transfection efficiency. Using the normalized values, the following calculations were carried out using the luminescence values increased by IL-4 stimulation. Inhibition Rate(%)=[…] E: In the presence of the compound of the present application, increased luminescence value by IL-4 stimulation C: Without the presence of the compound of the present application, increased luminescence value by IL-4 stimulation […]

NF-κB = NF-κB inhibition test: pNFκB-Luc luciferase reporter in U2-OS cells stimulated with human TNF α; format: cell-based; conditions: human TNF α 10 ng/mL; for inhibition at 2 µM / Inhibition Rate of NF-κB (%): compound 2 μM, 8 hours; for inhibition at 2 µM: read-out: Inhibition Rate of NF-κB (%); for IC50: from inhibition rates at 1, 0.1, 0.01 and 0.001 μM, read-out: IC50 against activation of NF-κB
Description: (1) Transfection to U2-OS Cells and Inhibition Test of Activation
U2-OS cells were seeded at 2×10^4 cells/well in 96-well culture plate, and transfection was carried out using FuGENE 6 Transfection Reagent (Roche Diagnostics GmbH). The procedures of the transfection are shown below.
11 μg of reporter plasmid (pNFκB-Luc; Stratagene Corporation) and 1.1 μg of pCMV β (CLONTECH Laboratories, Inc.) were mixed in 1.1 mL of OPTI-MEM I medium (GIBCO BRL) (solution (A)).
[…] of FuGENE 6 Transfection Reagent was mixed in 1.1 mL of OPTI-MEM I medium (solution (B)).
as §1
To this transfection solution, U2-OS cell suspension (11 mL) in McCoy's 5A medium (GIBCO BRL) containing 10% Fetal Bovine Serum (FBS; GIBCO BRL) at […] was added and well mixed.
as §2
After removal of 50 μL of medium from each well, 50 μL of McCoy's 5A medium (serum-free) containing compound of the present application was added to a final concentration of 0.01˜2 μM (0.001, 0.01, 0.1, 0.5, 1 or 2 μM), and the plates were incubated for 2 hours (37° C., 5% CO2).
10 μL of the McCoy's 5A medium (serum-free) containing human TNF α (PEPROTECH EC Ltd.) was added to each well to achieve a final concentration of 10 ng/mL, and incubated for 8 hours (37° C., 5% CO2).
as §3, §4, §5, §6, §7, §8
(3) Calculation of Inhibition Rate
Luminescence values that show the degree of activation by TNF α stimulation were normalized by β-gal values that show transfection efficiency. Using the normalized values, the following calculation was carried out using the luminescence values that increased by TNF α stimulation. Inhibition Rate(%)=[…] E: In the presence of the compound of the present application, increased luminescence values by TNF α stimulation C: Without the presence of the compound of the present application, increased luminescence values by TNF α, stimulation
The values of protein assay by BCA reagent were used for a simple assessment of cytotoxicity, and not used for the calculation of inhibition rates.
NF-κB Inhibition Rates are shown below. The values in parentheses in the table represent the concentration of the compound of the present application.
NF-κB inhibition rates where the concentrations of the compound of the present application were 1, 0.1, 0.01 and 0.001 μM were calculated, and the 50% inhibitory concentrations (IC50) of the compounds of the present application against activation of NF-κB were evaluated.

| SMILES | IC50 (STAT6) [nM] | IC50 (NF-κB) [nM] | IC50 (STAT6; U2OS) [nM] | IC50 (NF-κB; U2OS) [nM] | inhibition at 2 µM (STAT6; U2OS) [%] | inhibition at 2 µM (NF-κB; U2OS) [%] | Inhibition Rate of STAT6 (%) (STAT6) | Inhibition Rate of NF-κB (%) (NF-κB) |
| --- | --- | --- | --- | --- | --- | --- | --- | --- |
| O=C(Nc1ccc(C2CCNCC2)c(F)c1)c1cc(Cl)ccc1O [Compound 41] |  |  |  |  | 78 | 74 |  |  |
| O=C(Nc1ccc(N2CCCCC2)c(Cl)c1)c1cc(Cl)ccc1O [compound 8] |  |  |  |  |  |  | 93 (2 μM) % | 61 (2 μM) % |
| CN1CCN(c2ccc(NC(=O)c3cc(Cl)ccc3O)cc2C(F)(F)F)CC1.Cl [compound 16] | 82.2 | 89.1 |  |  |  |  | 92 (2 μM) % | 86 (2 μM) % |
| NC1CCN(c2ccc(NC(=O)c3cc(Cl)ccc3O)cc2F)C1 (stereo not drawn) [compound 42] |  |  |  |  |  |  | 41 (2 μM) % | 24 (2 μM) % |
| CN1CCN(c2ccc(NC(=O)c3ccc(Cl)cc3O)cc2F)CC1.Cl [compound 61] |  |  |  |  |  |  | 86 (2 μM) % | 80 (2 μM) % |
| CCC1CN(c2ccc(NC(=O)c3cc(Cl)ccc3O)cc2F)CCN1.Cl (stereo not drawn) [compound 72] |  |  |  |  |  |  | 37 (2 μM) % | 41 (2 μM) % |
| O=C(Nc1ccc(OC2CCCCC2)c(C(F)(F)F)c1)c1cc(Cl)ccc1O [compound 5] |  |  |  |  |  |  | 88 (2 μM) % | 63 (2 μM) % |
| Cl.NC1CCN(c2ccc(NC(=O)c3cc(Br)ccc3O)cc2F)CC1 [compound 67] | 5.32 | 16 |  |  |  |  | 94 (2 μM) % | 93 (2 μM) % |
| CCN1CCCN(c2ccc(NC(=O)c3cc(Cl)ccc3O)cc2F)CC1 [compound 53] |  |  |  |  |  |  | 57 (2 μM) % | 45 (2 μM) % |
| Cl.O=C(Nc1ccc(N2CCC(N3CCCC3)CC2)c(F)c1)c1cc(Cl)ccc1O [compound 15] |  |  |  |  |  |  | 59 (2 μM) % | 53 (2 μM) % |
| CC1CN(c2ccc(NC(=O)c3cc(Cl)ccc3O)cc2F)C(C)CN1.Cl.Cl (stereo not drawn) [compound 85] |  |  |  |  |  |  | 72 (2 μM) % | 79 (2 μM) % |
| CN1CCN(c2ccc(NC(=O)c3cc(Cl)ccc3O)cc2Cl)CC1.Cl [compound 17] | 82.9 | 113 |  |  |  |  | 96 (2 μM) % | 90 (2 μM) % |
| CN1CCC(Oc2ccc(NC(=O)c3cc(Cl)ccc3O)cc2F)CC1 [compound 24] | 36.8 | 43.3 |  |  |  |  | 93 (2 μM) % | 91 (2 μM) % |
| CC1CCC(C)N1c1ccc(NC(=O)c2cc(Cl)ccc2O)cc1F.Cl (stereo not drawn) [compound 83] |  |  |  |  |  |  | 80 (2 μM) % | 59 (2 μM) % |
| CN1CCC(Oc2ccc(NC(=O)c3cc(Cl)ccc3O)cc2F)C1 (stereo not drawn) [compound 38] |  |  |  |  |  |  | 77 (2 μM) % | 64 (2 μM) % |
| O=C(Nc1ccc(N2CCCCC2)c(C(F)(F)F)c1)c1cc(Cl)ccc1O [compound 4] |  |  |  |  |  |  | 71 (2 μM) % | 28 (2 μM) % |
| Cc1ccc(O)c(C(=O)Nc2ccc(N3CCN(C)CC3)c(F)c2)c1.Cl [compound 57] |  |  |  |  |  |  | 75 (2 μM) % | 62 (2 μM) % |

Now from value to compound, other results behind:

| IC50 (STAT6) [nM] | IC50 (NF-κB) [nM] | IC50 (STAT6; U2OS) [nM] | IC50 (NF-κB; U2OS) [nM] | SMILES | inhibition at 2 µM (STAT6; U2OS) [%] | inhibition at 2 µM (NF-κB; U2OS) [%] | Inhibition Rate of STAT6 (%) (STAT6) | Inhibition Rate of NF-κB (%) (NF-κB) |
| --- | --- | --- | --- | --- | --- | --- | --- | --- |
| 7.29 | 8.44 |  |  | CN1CCCN(c2ccc(NC(=O)c3ccc(Cl)cc3O)cc2F)CC1 [compound 77] |  |  | 90 (2 μM) % | 89 (2 μM) % |
| 3.22 | 7.04 |  |  | CN1CCCN(c2ccc(NC(=O)c3cc(Cl)ccc3O)cc2F)CC1 [compound 34] |  |  | 94 (2 μM) % | 95 (2 μM) % |
| 3.36 | 8.41 |  |  | Cl.NC1CCN(c2ccc(NC(=O)c3ccc(Cl)cc3O)cc2F)CC1 [compound 71] |  |  | 92 (2 μM) % | 94 (2 μM) % |
|  |  | 40.4 | 63.6 | CNC1CCN(c2ccc(NC(=O)c3cc(Cl)ccc3O)cc2F)CC1 [Compound 68] | 74 | 71 |  |  |
|  |  | 3.22 | 6.79 | NC1CCN(c2ccc(NC(=O)c3cc(Cl)ccc3O)cc2F)CC1 [Compound 27] | 98 | 95 |  |  |
| 15 | 43.5 |  |  | Cl.NCC1CCCN(c2ccc(NC(=O)c3cc(Cl)ccc3O)cc2F)C1 (stereo not drawn) [compound 54] |  |  | 89 (2 μM) % | 84 (2 μM) % |
| 25.5 | 21.9 |  |  | CC1CNCCN1c1ccc(NC(=O)c2cc(Cl)ccc2O)cc1F.Cl (stereo not drawn) [compound 88] |  |  | 90 (2 μM) % | 90 (2 μM) % |
| 91.9 | 147 |  |  | Cc1cc(NC(=O)c2cc(Cl)ccc2O)ccc1N1CCN(C)CC1.Cl [compound 18] |  |  | 79 (2 μM) % | 67 (2 μM) % |
| 7.51 | 15.7 |  |  | O=C(Nc1ccc(N2CCCNCC2)c(F)c1)c1cc(Cl)ccc1O [compound 44] |  |  | 94 (2 μM) % | 94 (2 μM) % |

— patent US7671058B2, “N-(3,4-disubstituted phenyl) salicylamide derivatives” (Institute of Medicinal Molecular Design, Inc., priority 2006, dated 2010)
